Measured values reported in the METLIN SMRT retention time set (Domingo-Almenara et al. 2019).

Test: gradient 5% acetonitrile 3 min, to 50% in 2 min, to 85% in 15 min, held 3 min, 100 µL/min
Conditions: column: Zorbax Extend-C18 2.1 x 50 mm; eluents: water / acetonitrile, 0.1% formic acid
Summary of the method: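 The system's dead and dwell volumes were 40 μL and 900 μL, with a Zorbax Extend-C18 column (2.1 × 50 mm, 1.8 μm) run at 100 μL/min in water and acetonitrile containing 0.1% formic acid each. Pure standards were analyzed in mixtures of ~100 molecules by HPLC–quadrupole time-of-flight mass spectrometry in positive and negative ionization mode. Retention time was assigned from computationally picked, manually inspected adduct peaks.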

| Structure (SMILES) | RP-LC retention time [s] |
| --- | --- |
| O=C(COc1ccccc1-c1nnc(-c2ccccc2)o1)NCc1ccco1 | 961 |
| CCCc1cc(=O)oc2cc(C)cc(OCC(=O)N[C@H](C(=O)O)C(C)C)c12 | 806 |
| COCCn1c(SCc2nc(-c3ccc(F)cc3)no2)nc2cc3c(cc2c1=O)OCO3 | 1070 |
| O=C(Cc1ccccc1)NCc1nc(-c2cccc(-c3ccn[nH]3)c2)no1 | 898 |
| O=C(Cc1cccc(Cl)c1)N1CCc2cc(-c3ccno3)ccc21 | 1020 |
| CN(C)c1nn(CC(=O)Nc2ccc(Br)cc2)c(=O)c2ccccc12 | 932 |
| Cc1cc(C)n(-c2ccnc(NCCc3cccs3)n2)n1 | 836 |
| C=CCN(Cc1nc(-c2cccc(C)c2)no1)C(=O)Nc1ccccc1C | 1080 |
| CN1CCN(C(CNC(=O)C(=O)Nc2ccc(Cl)cc2)c2ccc3c(c2)OCO3)CC1 (centres undefined) | 716 |
| COC(=O)c1ncn2c1C(=O)N(Cc1ccccc1)C(C)(C(=O)NCc1ccccc1)C2 (centres undefined) | 715 |
| Cc1ccc(-n2c(N)cc(=O)nc2SCC(=O)Nc2nc3ccc(C)cc3s2)cc1 | 686 |
| COc1ccc(-c2noc(-c3nn(-c4ccc(C)cc4)ccc3=O)n2)cc1 | 919 |
| CC(=O)Nc1cccc2c(C(=O)N3CCN(c4cccc(Cl)c4)CC3)ccnc12 | 920 |
| COC(=O)c1cc2ccsc2n1CC(=O)Nc1ccc(F)c(Cl)c1 | 1010 |
| O=c1c2sccc2n(Cc2nc(-c3ccc(OC(F)(F)F)cc3)no2)c(=O)n1-c1ccccc1 | 1080 |
| Cc1cccc(S(=O)(=O)N(C)CC2CCOC2)c1 (centres undefined) | 811 |
| O=C(CSc1cc(-c2ccc(F)cc2)ncn1)NCc1ccc2c(c1)OCO2 | 825 |
| Cn1c(=O)oc2cc(-c3noc(CNC(=O)Cc4ccc(Cl)cc4)n3)ccc21 | 807 |
| Cc1sc2ccn(C)c(=O)c2c1C(=O)NCc1ccccc1F | 751 |
| c1ccc(N2CCN(CCCOc3ccc4c(c3)OCO4)CC2)cc1 | 770 |

| Structure (SMILES) | RP-LC retention time [s] |
| --- | --- |
| CCCN(CC1CCOC1)C(=O)c1cc(F)ccc1Cl (centres undefined) | 821 |
| CCOC(=O)c1c(-c2cccs2)csc1NC(=O)CSc1ncn[nH]1 | 815 |
| CN1C(=O)C(c2c(-c3ccccc3)[nH]c3[nH]c(=O)[nH]c(=O)c23)c2ccccc21 (centres undefined) | 668 |
| C=CCn1c(C)c(CC(=O)Nc2ccc(F)cc2)c(=O)n2nc(-c3ccc(C)cc3)nc12 | 945 |
| Cc1nc2cc3c(cc2n1CC(=O)Nc1cccc(C(F)(F)F)c1)OCCO3 | 712 |
| CN1C2CCC1[C@@H](COC(=O)c1ccccc1)[C@@H](O)C2 (some centres undefined) | 636 |
| CCOC(=O)c1cnc2nc(C)ccc2c1Nc1cc(OC)cc(OC)c1 | 720 |
| O=C(NCc1cccnc1Oc1ccccc1)c1cnn2cccnc12 | 695 |
| COc1ccc(-c2ccnn2-c2ccc(SCc3ccc(F)cc3)nn2)cc1 | 738 |
| O=C1COc2ccccc2N1Cc1nc(-c2cccc(F)c2)no1 | 990 |
| CCc1nnc2ccc(-c3noc(-c4ccc(F)cc4F)n3)cn12 | 879 |
| Cc1nc2ccccc2n(CCC(=O)NCCc2c[nH]c3ccc(Cl)cc23)c1=O | 795 |
| O=C(Cn1cccn1)NCc1ccc(OCc2ccccc2)cc1 | 776 |
| Cc1nnc(-c2nnc(NCc3ccc(Cl)cc3)c3ccccc23)o1 | 886 |
| COCC(=O)N(CC(=O)N1CCc2sccc2C1COc1cccc(OC)c1)CC(C)C (centres undefined) | 894 |
| CCN1C(=O)c2cccnc2Sc2cc(NC(=O)c3ccccc3)ccc21 | 812 |
| Cc1coc2c(C)c3oc(=O)c(CCC(=O)NCCc4c[nH]c5ccccc45)c(C)c3cc12 | 964 |
| CCCn1cc(S(=O)(=O)Nc2ccc(F)cc2)c2cccnc21 | 858 |
| CCn1c(=O)c2ccccc2n(Cc2nc(-c3ccc(Cl)cc3)no2)c1=O | 1090 |
| Cc1ccn2c(Nc3ccc4c(c3)OCCO4)c(-c3ccccc3O)nc2c1 | 670 |

More lines, now with the values ahead:

| RP-LC retention time [s] | Structure (SMILES) |
| --- | --- |
| 748 | CN1C(=O)C2(CCN(C(=O)Nc3ccc4c(c3)OCCO4)C2)c2ccccc21 (centres undefined) |
| 763 | COCCN1C(=O)CCC2(C(=O)Nc3cc(OC)cc(OC)c3)CCCC=C12 (centres undefined) |
| 698 | COCCNC(=O)c1nc(Nc2ccc(C)cc2)c2ccccc2n1 |
| 794 | CCc1cccc(NC(=O)C2CCN(S(=O)(=O)c3cn(CC)cn3)CC2)c1 |
| 975 | O=C(c1ccccn1)N1CCc2cc(-c3csc(C4CC4)n3)ccc21 |
| 593 | CC(C)N1CCC2(CC1)N=C(c1ccc3c(c1)OCO3)CC(c1ccccc1O)N2 (centres undefined) |
| 766 | Cn1ccc2c(cc(C(=O)NCCC3=CCCCC3)n2C)c1=O |
| 663 | COc1ccc(C(=O)NC2CCN(c3cc(-c4ccccc4)[nH]n3)C2)cc1OC (centres undefined) |
| 757 | O=C1C2CCCN2C(=O)c2ccccc2N1CCc1ccccc1 (centres undefined) |
| 883 | O=C(Nc1cccc(F)c1)N1CCC(CCNC(=O)C2(c3ccccc3)CC2)CC1 |
| 932 | CCn1c(=O)sc2cc(S(=O)(=O)N3CCC(C(=O)NCc4ccc(C)cc4)CC3)ccc21 |
| 674 | Cc1ccc(N2N=C(C(=O)N3CCN(CC(C)C)CC3)S(=O)(=O)c3cccnc32)cc1 |
| 659 | O=C(Nc1cccc(-c2nnc3n2CCCC3)c1)c1ccsc1 |
| 559 | Cc1ncoc1C(=O)N1CC(c2noc(C3CCCN3CC3CC3)n2)C1 (centres undefined) |
| 1200 | COc1ccccc1-c1nc2n(n1)C1(CCCCC1)[C@@H]1CCCC[C@@H]1N2C(=O)c1ccco1 |
| 585 | COc1ccc2[nH]c(=O)c(CCC(=O)NCCCN3CCCC(C)C3)cc2c1 (centres undefined) |
| 695 | O=C(NC1CCN(c2cc(-c3ccc(F)cc3)[nH]n2)C1)c1ccc2c(c1)OCO2 (centres undefined) |
| 979 | CCOc1ccc(NC(=O)c2[nH]c(C)c(S(=O)(=O)N3CCCCC3)c2C)cc1 |
| 1160 | COc1nc2ccccc2nc1N1CCCC(C(=O)NC2CCCC(C)C2C)C1 (centres undefined) |
| 780 | O=C(Cn1nc(C(=O)N2CCCC2)c2ccccc21)NCc1ccc(F)cc1 |
| 694 | COc1ccc(OC)c(NC(=O)C2CCN(c3cc(N4CCSCC4)ncn3)CC2)c1 |
| 958 | CN1C(=O)c2ccccc2Oc2ccc(C(=O)NC3CCCCCC3)cc21 |
| 588 | Cc1cc(C(=O)CN2CCN(C)CC2)c(C)n1-c1cccc(C(F)(F)F)c1 |
| 638 | Cc1ccc(C)c(S(=O)(=O)N2CCC3(CCC(CN4CCN(C)CC4)O3)CC2)c1 (centres undefined) |
| 776 | COC(=O)C1=CN(c2cccc(OC)c2)c2ccccc2S1(=O)=O |

| RP-LC retention time [s] | Structure (SMILES) |
| --- | --- |
| 806 | Clc1ccc(-c2cc3c(N4CCN(C5CCCCC5)CC4)nccn3n2)cc1 |
| 717 | C=CCn1c(C)c(CC(=O)NCC2CCCO2)c(=O)n2nc(-c3ccccc3)nc12 (centres undefined) |
| 836 | COc1cccc(CNC2=NCCNC23CCN(S(=O)(=O)c2ccc(C(C)C)cc2)CC3)c1 |
| 941 | CC1CCCN(c2nc(-c3ccc(Cl)cc3)nc3ccccc23)C1 (centres undefined) |
| 802 | CCCC1=Nc2cc(C(=O)N3CCN(c4ccccn4)CC3)ccc2Sc2ccc(C)cc21 |
| 604 | Cc1nn(C)c(C)c1S(=O)(=O)N1CCCC(Cc2nncn2-c2ccccc2)C1 (centres undefined) |
| 856 | Cc1cccc(CNC(=O)C2=C3CCCN3c3ccccc3S2(=O)=O)c1 |
| 898 | O=S(=O)(c1ccc(-c2nnc(C3CC3)o2)o1)N1CCCCCC1 |
| 608 | CC(C)(C)c1ccc(OCC(O)CN2CCN(C(=O)c3ccccc3)CC2)cc1 (centres undefined) |
| 618 | Cc1nc2ccc(C(=O)N(C)C)cc2nc1C |
| 883 | O=C(CSCc1nc2cccnc2n1C1CCCCC1)NCCc1ccco1 |
| 1020 | COc1ccccc1N1CCN(c2ncc(S(=O)(=O)c3ccc(C)c(C)c3)c(N)n2)CC1 |
| 973 | CCc1nn2c(CNS(=O)(=O)c3cccc(C)c3)c(-c3ccccc3)nc2s1 |
| 640 | COC(=O)Cn1c(=O)c(=O)n(CC(=O)OC)c2ccccc21 |
| 656 | Cc1nn(C(C)C(=O)NCCCN(C)C2CCCCC2)c(=O)c2nn(-c3ccccc3)c(C)c12 (centres undefined) |
| 834 | CC(C)CN1Cc2c(nc3ccccc3c2C(=O)N2CCC(C)CC2)C1=O |
| 849 | O=C(NC1CCCC1)c1ccc(-c2cccs2)nc1 |
| 890 | CC(C)OCCCNC(=O)C1CCN(S(=O)(=O)c2ccc(-c3noc(C4CC4)n3)cc2)CC1 |
| 705 | CC1(C)C(=O)Nc2ccc(S(=O)(=O)N3CCC(c4noc(-c5ccccn5)n4)C3)cc21 (centres undefined) |
| 766 | CNC(=O)N1CCCC(c2cccc(C(=O)NCc3cc(OC)ccc3OC)c2)C1 (centres undefined) |
| 723 | COc1cc(NC(=O)N2CCN(c3ccc(=O)n(-c4ccc(F)cc4)n3)CC2)cc(OC)c1OC |
| 785 | CS(=O)(=O)N1CCC(OC2CCN(C(=O)Nc3ccccc3Cl)CC2)CC1 |
| 700 | CC(C)Cn1c(CCNC(=O)c2ccc(F)cc2)nc2cccnc21 |
| 567 | CN1CCN(C(CNC(=O)c2ccc3nsnc3c2)c2ccc(F)cc2)CC1 (centres undefined) |
